# Source: US6790854B2, “Diphenylalkylamine derivatives useful as opioid receptor agonists” (Meiji Seika Kaisha, Ltd., priority 2000, dated 2004)
# pKi: −log10 of the molar value.
# Molecular target: T1, opioid δ receptor (Rattus norvegicus, UniProt P33533)
# T1 construct: A membrane fraction of opioid δ receptor was prepared from the rat forebrain; from tissue; host or cells: rat forebrain membrane fraction
# Experiment: Binding affinity for opioid δ receptor ([3H]-Naltrindole displacement, rat forebrain membrane fraction)
# Details: [3H]-Naltrindole 1 nM, 25° C., 90 minutes, Ki calculated from IC50 by the Cheng-Prusoff equation
# T1 sequence (P33533 whole entry): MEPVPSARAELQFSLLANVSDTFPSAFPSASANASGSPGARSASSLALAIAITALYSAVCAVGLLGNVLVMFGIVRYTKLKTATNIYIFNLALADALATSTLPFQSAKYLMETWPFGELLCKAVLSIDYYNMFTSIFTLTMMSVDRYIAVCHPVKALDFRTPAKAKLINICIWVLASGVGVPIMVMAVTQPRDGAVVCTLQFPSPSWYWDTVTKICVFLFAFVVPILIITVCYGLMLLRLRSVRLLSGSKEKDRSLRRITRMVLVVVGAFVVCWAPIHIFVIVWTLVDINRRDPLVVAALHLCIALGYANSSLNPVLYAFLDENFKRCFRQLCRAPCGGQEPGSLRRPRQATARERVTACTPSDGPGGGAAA
structure (smiles),measurement,value
"CCN(CC)C(=O)c1ccc(C(CCN2CCC3(CC2)CNC(=O)c2cccc(C)c23)c2ccccc2OC)cc1 (stereo not shown) [Example 9, 1′-[3-(4-Diethylcarbamoylphenyl)-3-(2-methoxyphenyl)Propyl]-2,3-dihydro-5-methylspiro [isoquinoline-4(1H),4′-piperidin]-1-one]",pKi,5.92
